Data taken from patent US9631041B2, “PH-sensitive compositions for delivery of beta lapachone and methods of use” (The Board of Regents of the University of Texas System, priority 2010, dated 2017).
Values after ≈ are worked out from the molar mass of the structure shown. Read-outs that look alike come from different tables or passages of the source. Each block holds one molecule with its values, some of them ahead of it.

Tests used:
[1] = Prodrug hydrolysis / conversion into β-lap by HPLC at different pH; type: physicochemical; conditions: for pH sensitivity of hydrolysis: hydrolysis study at neutral pH and acidic pH; for half-life at 5 μmol/mL: acetonitrile/buffered solution (30:70, v/v)
Experimental: The HPLC system consisted of a quaternary pump, a vacuum degasser, an autosampler, a C18 column (4.6 mm×250 mm, Agilent, CA) and UV detector at 254 nm (Perkin Elmer, MA, USA). The mobile phase was acetonitrile/water (60:40) and a flow rate of 1.0 mL/min was used.

[2] = free drug; cited from earlier work
NQO1 = NQO1 (Homo sapiens, UniProt P15559); conditions: upon NQO1 bioactivation, futile cycle; cited from earlier work
A549 cells = test: Cytotoxicity assay, long-term relative survival by DNA content; type: cell-based, human
Experimental: Long-term, relative survival was assessed based on DNA content as described (Pink, J. J., Planchon, S. M., Tagliarino, C., Varnes, M. E., Siegel, D., and Boothman, D. A. (2000) NAD(P)H:Quinone oxidoreductase activity is the principal determinant of beta-lapachone cytotoxicity. J. Biol. Chem. 275, 5416-24). Briefly, A549 cells were seeded at 5×10^3/well in 48-well dishes a day before experiments. Cells were then mock-treated or exposed to various doses of β-lap or β-lap prodrug (6) conjugated micelles for preferred time in the presence or absence of dicoumoral (40 μM) as indicated. Subsequently, cells were replenished with drug-free medium and allowed to grow for 5-7 days until control cells reached ˜100% confluence. DNA content was determined by Hoechst 33258 staining and fluorescence detection using a plate reader (Perkin-Elmer, Boston, Mass.). Results were graphed as means±SE from sixtuplicate. Independent experiments were repeated at least three times. DIC is a specific NQO1 inhibitor and used to block β-Lap induced cytotoxicity.

[3] = inclusion complex with hydroxylpropyl β-cyclodextrin; cited from earlier work

Sequence of NQO1 (P15559 whole entry): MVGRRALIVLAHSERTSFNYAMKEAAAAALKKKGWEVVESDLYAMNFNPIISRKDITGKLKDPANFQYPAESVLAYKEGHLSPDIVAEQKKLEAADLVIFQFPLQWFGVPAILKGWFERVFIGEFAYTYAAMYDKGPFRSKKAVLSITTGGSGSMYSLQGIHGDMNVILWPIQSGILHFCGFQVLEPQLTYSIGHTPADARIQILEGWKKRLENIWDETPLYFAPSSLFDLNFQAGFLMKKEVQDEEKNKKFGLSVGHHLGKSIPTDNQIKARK

Compound: CC(=O)N/N=C1\C(=O)C2=C(OC(C)(C)CC2)c2ccccc21 [prodrug (1), (Z)—N′-(2,2-dimethyl-5-oxo-3,4-dihydro-2H-benzo[h]chromen-6(5H)-ylidene)acetohydrazide]
pH sensitivity of hydrolysis [1]: not pH-sensitive

Compound: CC1(C)CCC2=C(O1)c1ccccc1/C(=N\c1ccc(N3C(=O)C=CC3=O)cc1)C2=O [prodrug (6), (E)-1-(4-(2,2-dimethyl-5-oxo-3,4-dihydro-2H-benzo[h]chromen-6(5H)-ylideneamino)phenyl)-1H-pyrrole-2,5-dione]
half-life at 5 μmol/mL ([1]; pH 5, pH 5.0, room temperature, read-out: half-life of conversion into β-lap, t1/2 (pH 5.0) (converted)): 1.1 h
half-life at 5 μmol/mL ([1]; pH 7.4, pH 7.4, read-out: half-life for hydrolysis, t1/2 (pH 7.4)): > 90 h
pH sensitivity of hydrolysis [1]: inspiring pH sensitivity both at neutral and at acidic conditions
prodrug converted into β-Lap ([1]; pH 5.0, after 1.5 hr): more than 50%
prodrug hydrolyzed ([1]; pH 5.0, after 10 hrs): all prodrug (6) was hydrolyzed
β-Lap released from prodrug ([1]; pH 5.0 buffer, 5 mins): only a trace
prodrug converted into β-Lap ([1]; pH 6.5, after 24 hrs): about 30%
prodrug converted into β-Lap ([1]; pH 7.4, after 24 hrs): ~3.3%

Compound: CC1(C)CCC2=C(O1)c1ccccc1C(=O)C2=O [β-lap, β-Lapachone]
aqueous solubility [2]: 38 µg/mL (≈ 157 µM)
moles of H2O2 and other ROS produced per mole of β-lap (NQO1): 120 mol
cytotoxicity in the presence of dicoumarol (NQO1 inhibitor) (A549 cells; A549, dicoumarol 40 μM): blocked
concentration sufficient to reach maximal cytotoxicity (A549 cells; A549 cells, within 2 hours): 5 µM
binding constant [3]: 1100 M⁻¹

Compound: Nc1ccc(N2C(=O)C=CC2=O)cc1 [linker, N-(4-Aminophenyl)maleimide]
toxicity (A549 cells; A549, treatment up to 24 h): No toxicity

The remaining lines, values ahead:

pH sensitivity of hydrolysis [1]: resisted acid catalyzed hydrolysis
Compound: CC1(C)CCc2c(c3ccccc3c3nc(CCCCO)oc23)O1 [(4), 4-(6,6-dimethyl-5,6-dihydro-4H-benzo[7,8]chromeno[6,5-d]oxazol-2-yl)butan-1-ol]

pH sensitivity of hydrolysis [1]: not pH-sensitive
Compound: CC1(C)CCC2=C(O1)c1ccccc1[C@]1(OC[C@](C)(CO)CO1)C2=O [prodrug (3), (2′s,5′s)-5′-(hydroxymethyl)-2,2,5′-trimethyl-3,4-dihydrospiro[benzo[h]chromene-6,2′-[1,3]dioxan]-5(2H)-one]

pH sensitivity of hydrolysis [1]: resisted acid catalyzed hydrolysis
Compound: Cc1cc2nc3c(oc-2cc1=O)c1c(c2ccccc23)OC(C)(C)CC1 [(5), 3,3,11-trimethyl-2,3-dihydrobenzo[a]pyrano[2,3-c]phenoxazin-12(1H)-one]

pH sensitivity of hydrolysis [1]: not pH-sensitive
Compound: CC1(C)CCC2=C(O1)c1ccccc1[C@]1(OC[C@@](C)(CO)CO1)C2=O [prodrug (2), (2′r,5′r)-5′-(hydroxymethyl)-2,2,5′-trimethyl-3,4-dihydrospiro[benzo[h]chromene-6,2′-[1,3]dioxan]-5(2H)-one]
